# Measured values as given in patent publication US7553853B2, “Solid-state montelukast” (Synthon BV, priority 2003, dated 2009).
# Key:
# [1] = Hygroscopicity as stated in the description; format: physicochemical; settings: solid state
# [2] = Hygroscopicity of montelukast acid (water content by Karl Fisher apparatus after exposure); format: physicochemical
# Protocol: Montelukast acid (50 mg) from Example 2 was exposed to air overnight. The water content was then determined to be 0.07 wt % using a Karl Fisher apparatus.
# Montelukast acid (50 mg) from Example 2 was stored for 2 days at 40° C., 75% relative humidity. The water content was then determined to be 0.27 wt % using a Karl Fisher apparatus.
smiles,measurement,setting,value
"CC(C)(O)c1ccccc1CC[C@@H](SCC1(CC(=O)O)CC1)c1cccc(/C=C/c2ccc3ccc(Cl)cc3n2)c1 [Montelukast acid, [R-(E)]-1-[[[1-[3-[2-(7-chloro-2-quinolinyl)ethenyl]phenyl]-3-[2-(1-hydroxy-1-methylethyl)phenyl]propyl]thio]methyl]cyclopropane acetic acid]",hygroscopicity in comparison to sodium montelukast,[1],reduced hygroscopicity
same,water content,"[2]; montelukast acid (50 mg) from Example 2, exposed to air overnight",0.07 wt %
same,water content,"[2]; montelukast acid (50 mg) from Example 2, stored for 2 days at 40° C., 75% relative humidity",0.27 wt %
